We go through three compounds from patent US7919460B2, “Method for prophylaxis of reflex sympathetic dystrophy after stroke” (Asahi Kasei Pharma Corporation, priority 2006, dated 2011).

The conditions of data set [1]: in vivo; cited from earlier work.
In data set [2] the test system is RSD triggered and developed by a trauma or surgical invasion. Conditions: clinical, literature; cited from earlier work.
The test system of data set [3] is patients with hemiplegia attributed to cerebrovascular disease (stroke) who developed RSD (shoulder-hand syndrome). Nature of the data set: Test of treatment of post-stroke RSD (therapeutic administration after onset). It counts as in vivo, humans. Conditions: therapeutic administration group (11 patients), at completion of administration. As to the method:
EL was administered after the onset of RSD (shoulder-hand syndrome) in the same use and dose as in Example 1 to 11 patients with hemiplegia attributed to cerebrovascular disease (stroke) at Brunnstrom stage III or lower in either the upper limb or a finger on admission, who developed RSD (shoulder-hand syndrome). These patients were classified into a therapeutic administration group. On the other hand, the EL administration group of Example 1 was compared as a control (preventive administration group) with the therapeutic administration group.

The subject of data set [4] is patients with hemiplegia attributed to cerebrovascular disease (stroke), onset of RSD (shoulder-hand syndrome). Put plainly: Test of prevention of onset of post-stroke RSD. It counts as in vivo, humans. An excerpt:
Test subjects were 33 patients with hemiplegia attributed to cerebrovascular disease (stroke) at Brunnstrom stage III or lower in either the upper limb or a finger on admission. Patients already developing RSD (shoulder-hand syndrome) on admission and patients with pain in the shoulder joint or swollen paralyzed limbs were excluded from the test. […] On the other hand, 21 test subjects were classified into a rehabilitation alone group (control group) and compared with the EL administration group. Physical therapy and therapeutic exercise, occupational therapy, and the management of the paralyzed limbs were performed thoroughly in all the cases. […] EL administration was initiated 11 to 59 days after an attack of stroke (25.8 days on average) and continued until 5 months after the attack of stroke. The same observation period was applied to the control group. The test subjects were diagnosed as developing RSD (shoulder-hand syndrome) if they had diffuse pain not localized to the shoulder joint, edema involving skin color changes, skin temperature abnormalities, and range of motion limitations, and the practice of their rehabilitation was restricted. These criteria agreed to Veldmnan's diagnostic criteria or diagnostic criteria for CRPS-type 1 provided by the International Association for the Study of Pain.
Activities of daily living (ADL) were evaluated on the basis of the Barthel Index (BI) and the range of motion (ROM) of shoulder joint. The movable range of shoulder joint (also referred to as “shoulder ROM”) was regarded as restricted (Shoulder-ROM-restrictions were present.) if either abduction or flexion was restricted in measurement. The test subjects were also examined for sensory impairment, aphasia, and unilateral spatial neglect on admission.
Statistical analysis was conducted with unpaired t-test, Fisher's exact test or Wilcoxon test, and 5% or lower significance level was regarded as being significant.

[5] abbreviates: EL preventive administration group (12 cases), 20 units i.m. once a week until 5 months after stroke.

As for salmon calcitonin, the “Dose of oral administration agent relative to dose of drip infusion in vein” value in data set [1] is “approximately 60 times”.

Consider `O=C1O[C@H]([C@@H](O)CO)C(O)=C1O` [vitamin C], for which the “Preventive effect on the initial onset of RSD after trauma or surgical invasion” value in data set [2] was “preventive effect”.

“1-butyric acid-7-(L-2-aminobutyric acid)-26-L-aspartic acid-27-L-valine-29-L-alanine-calcitonin [elcatonin]”: the “No RSD, the number of persons” value in data set [3] is on record as 0. For the same compound, the “Incidence converted to incidence in all patients with hemiplegia attributed to stroke in the facility” value in data set [4] (EL administration group) was “approximately 1.3%”. Besides, in data set [4] (EL administration initiated within 48 days after stroke), the “Incidence of RSD” value was 0%. Also, in data set [4] (setting [5]), the “The number of test subjects developing post-stroke RSD: Developed” value is listed as 1 and the “The number of test subjects developing post-stroke RSD: Not developed” value was 11. Also, in data set [4] (EL preventive administration group, 12 cases), the “Incidence of RSD (cases developed RSD)” value is 8.3%. The “Incidence of RSD until discharge versus unadministered patient group” value in data set [4] (repetitive administration to stroke hemiplegia patients without RSD on admission) is “suppressed significantly and remarkably”.
